Source: patent US8338637B2, “Therapeutic compounds” (Allergan, Inc., priority 2006, dated 2012)

Legend:
EP4 receptors = target: T1, EP4 receptors (Homo sapiens, UniProt P35408); experiment: Radioligand binding, EP4 receptor; details: [3H]PGE2 competition
T1 construct: expressed in transfected cells; host or cells: HEK-293 cells (membrane fraction)
Method: HEK-293 cells stably expressing the human or feline FP receptor, or EP1, EP2, or EP4 receptors were washed with TME buffer, scraped from the bottom of the flasks, and homogenized for 30 sec using a Brinkman PT 10/35 polytron. TME buffer was added to achieve a final 40 ml volume in the centrifuge tubes (the composition of TME is 100 mM TRIS base, 20 mM MgCl2, […]; 10N HCl is added to achieve a pH of 7.4).
The cell homogenate was centrifuged at 19000 r.p.m. for 20 min at 4° C. using a Beckman Ti-60 rotor. The resultant pellet was resuspended in TME buffer to give a final 1 mg/ml protein concentration, as determined by Biorad assay. Radioligand binding competition assays vs. [^3H-]17-phenyl PGF2[…] (5 nM) were performed in a 100 μl volume for 60 min. Binding reactions were started by adding plasma membrane fraction. The reaction was terminated by the addition of 4 ml ice-cold TRIS-HCl buffer and rapid filtration through glass fiber GF/B filters using a Brandel cell harvester. The filters were washed 3 times with ice-cold buffer and oven dried for one hour.
[^3H-] PGE2 (specific activity 180 Ci mmol) was used as the radioligand for EP receptors. [^3H] 17-phenyl PGF2α was employed for FP receptor binding studies. […] 17-phenyl PGF2α and non-specific binding determined with 10^−5M of unlabeled PGE2, or 17-phenyl PGF2α, according to receptor subtype studied.

EP2 [1] = target: T2, EP2 (Homo sapiens, UniProt P43116); experiment: cAMP assay, HEK-EBNA cells expressing EP2; assay type: cell-based; parameters: expressed in transfected cells; host or cells: HEK-EBNA cells
Method: A 384-well drug plate was prepared to contain 6 test compounds, PGE2 and cAMP in 16 serial dilutions in triplicate, using a Biomek station. HEK-EBNA cells expressing a target PG receptor subtype (EP2 or EP4) were suspended in a stimulation buffer (HBSS, 0.1% BSA, 0.5 mM IBMX and 5 mM HEPES, pH 7.4) in a density of 10^4 cells/5 μl. The reaction was initiated by mixing 5 μL drug dilutions with 5 μl of HEK-EBNA cells in a well, carried out for 30 min at room temperature, and followed by the addition of 5 μl anti-cAMP acceptor beads in the control buffer with Tween-20 (25 mM NaCl, 0.03% Tween-20, 5 mM HEPES, pH7.4). After 30 min in the dark at room temperature, the mixtures were incubated with 15 μl biotinylated-cAMP/strepavidin donor beads in Lysis/Detection buffer (0.1% BSA, 0.3% Tween-20 and 5 mM HEPES, pH7.4) for 45 min at the room temperature. Fluorescence changes were read using a Fusion-alpha HT microplate reader.

EP2 [2] = target: T2, EP2; experiment: Competition binding, [3H]PGE2, HEK 293 cells expressing human EP2 receptors; parameters: expressed in transfected cells; host or cells: HEK 293 cells (membranes or whole cells); details: [3H]PGE2 competition
Method: Competition binding experiments were performed in a medium containing Hank's balanced salt solution, Hepes 20 mM, pH 7.3, membranes (˜60 μg protein) or 2×10^5 cells from HEK 293 cells stably expressing human EP2 receptors, [^3H]PGE2 (10 nM) and various concentrations of test compounds in a total volume of 300 μl. Reaction mixtures were incubated at 23° C. for 60 min, and were filtered over Whatman GF/B filters under vacuum. Filters were washed three times with 5 ml ice-cold buffer containing 50 mM Tris/HCl (pH 7.3). Non-specific binding was estimated in the presence of excess unlabeled PGE2 (10 μM). Binding data fitted to the binding model for a single class of binding sites, using nonlinear regression analysis. IC50 values thus obtained were converted to Ki using the equation of Ki=(IC50/(1+[L]/KD) where [L] represents PGE2 concentration (10 nM) and KD the dissociation constant for [^3H]PGE2 at human EP2 receptors (40 nM). […]
The cell homogenate was centrifuged at 19000 r.p.m. for 20 min at 4° C. using a Beckman Ti-60 rotor. The resultant pellet was resuspended in TME buffer to give a final 1 mg/ml protein concentration, as determined by Biorad assay. […]
[^3H-] […] 17-phenyl PGF2α and non-specific binding determined with 10^−5M of unlabeled PGE2, or 17-phenyl PGF2α, according to receptor subtype studied.

T2 sequence (P43116 whole entry): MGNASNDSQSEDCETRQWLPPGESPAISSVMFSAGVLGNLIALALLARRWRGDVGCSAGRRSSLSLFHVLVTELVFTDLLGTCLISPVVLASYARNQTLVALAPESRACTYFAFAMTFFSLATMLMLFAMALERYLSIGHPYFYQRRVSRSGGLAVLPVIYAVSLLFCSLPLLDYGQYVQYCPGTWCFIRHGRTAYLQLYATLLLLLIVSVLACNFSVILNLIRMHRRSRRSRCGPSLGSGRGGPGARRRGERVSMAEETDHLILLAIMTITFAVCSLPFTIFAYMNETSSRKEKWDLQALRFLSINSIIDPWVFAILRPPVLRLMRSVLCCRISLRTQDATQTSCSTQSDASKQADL
T1 sequence (P35408 whole entry): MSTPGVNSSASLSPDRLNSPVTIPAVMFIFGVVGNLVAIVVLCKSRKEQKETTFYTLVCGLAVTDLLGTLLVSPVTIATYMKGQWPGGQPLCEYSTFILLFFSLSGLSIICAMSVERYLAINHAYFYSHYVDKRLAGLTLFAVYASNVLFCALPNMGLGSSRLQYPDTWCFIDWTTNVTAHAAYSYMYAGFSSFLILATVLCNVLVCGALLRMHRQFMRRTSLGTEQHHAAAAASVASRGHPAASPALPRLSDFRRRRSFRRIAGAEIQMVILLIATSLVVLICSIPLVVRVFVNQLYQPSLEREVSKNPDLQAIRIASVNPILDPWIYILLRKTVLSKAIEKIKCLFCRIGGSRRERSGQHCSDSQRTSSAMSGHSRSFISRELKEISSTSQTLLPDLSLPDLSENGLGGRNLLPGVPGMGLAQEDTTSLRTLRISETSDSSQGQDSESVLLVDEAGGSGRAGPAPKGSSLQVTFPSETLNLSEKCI

Row | SMILES | Ki (EP4 receptors) [nM] | EC50 (EP2 [1]) [nM] | Ki (EP2 [2]) [nM]
1 | O=C(O)c1ccc(CCC[C@H]2CCC(=O)[C@@H]2COc2cc(Cl)cc(CO)c2)s1 [5-{3-[(1S,2S)-2-(3-Chloro-5-hydroxymethyl-phenoxymethyl)-3-oxo-cyclopentyl]-propyl}thiophene-2-carboxylic acid] | > 10000 | 457 | 300
2 | O=C(O)c1ccc(CCC[C@H]2C=CC(=O)[C@@H]2COc2cc(Cl)cc(CO)c2)s1 [5-{3-[(1S,5S)-5-(3-Chloro-5-hydroxymethyl-phenoxymethyl)-4-oxo-cyclopent-2-enyl]-propyl}-thiophene-2-carboxylic acid] | – | 8.7 | 201
